Data published in ChEMBL document CHEMBL1201862, “PubChem BioAssay data set” (2004).
Calls of active or inactive are those of the source.

What was measured:
P388 = assay: cells; assay type: functional; details: Mus musculus
P388/ADR = assay: cells; assay type: functional; details: Mus musculus
SN12K1 = assay: cells; assay type: functional; details: Homo sapiens
[1] = Luminescence Cell-Based Dose Retest to Confirm Inhibitors of Cancer Stem Cells. [Related pubchem assays (depositor defined):AID2717, AID2721]; assay type: functional; details: Homo sapiens
[2] = cytotoxicity toward NIH3T3 fibroblasts, dose response, counter-screen, cell-based, ATP luminescence, mouse fibroblasts (AID 2010); assay type: functional;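 also: cells exposed to compound for about 90 hours before reading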
[3] = tested on: Streptococcus sp. 'group A'; assay: growth inhibition of control SK(-) GAS strain, dose response, counter-screen for streptokinase expression inhibitor project, luminescence, kanamycin, BacTiterGlo, confirmation (AID 1900); assay type: functional, organism-based
H4 = assay: Luminescence Cell-Based Dose Response HTS to Identify Activators of 5'UTR Stem-Loop Driven Prion Protein mRNA Translation in H4 Neuroglioblastoma Cells. [Related pubchem assays: 1829 (Project Summary), 1814 (Primary HTS)]; assay type: functional; details: Homo sapiens
Streptokinase A = target: T1, Streptokinase A (Streptococcus pyogenes serotype M1, UniProt P10520); assay: S. pyogenes streptokinase expression inhibitors, potency, dose response, plasminogen activation absorbance, OD405 (AID 1914); assay type: functional, Streptococcus pyogenes M1 GAS;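 also: secreted streptokinase activity via plasminogen activation per viability signal from cell pellet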
T1 sequence (P10520 whole entry): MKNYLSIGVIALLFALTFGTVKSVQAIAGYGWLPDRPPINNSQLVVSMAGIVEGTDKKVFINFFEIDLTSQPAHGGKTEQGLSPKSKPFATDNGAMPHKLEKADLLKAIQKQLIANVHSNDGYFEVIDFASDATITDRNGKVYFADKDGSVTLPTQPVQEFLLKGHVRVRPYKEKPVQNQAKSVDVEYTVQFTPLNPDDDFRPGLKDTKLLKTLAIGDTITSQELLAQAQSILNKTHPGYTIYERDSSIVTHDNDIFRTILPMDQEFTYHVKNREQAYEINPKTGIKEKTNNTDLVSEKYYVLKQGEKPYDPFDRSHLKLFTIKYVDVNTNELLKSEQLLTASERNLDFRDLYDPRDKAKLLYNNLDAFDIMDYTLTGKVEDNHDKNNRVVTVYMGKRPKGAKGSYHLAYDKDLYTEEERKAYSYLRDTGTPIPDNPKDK

[4] = target: Heat shock protein HSP 90-alpha (Homo sapiens, UniProt P07900); assay type: functional, organism-based
Streptococcus = assay: Group A Streptococcus viability loss, dose response, counter-screen for streptokinase expression inhibitor project, luminescence, BacTiterGlo (AID 1915); assay type: functional, organism-based;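 also: potency for reduction of bacterial viability or growth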
[5] = inhibitors of intracellular T. cruzi replication, confirmation, NIH3T3 host cells, beta-gal luminescence (AID 2044); assay type: functional, cell-based;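 also: intracellular parasites grown in NIH/3T3 mouse fibroblasts as host cells; luminescent beta-galactosidase reporter signal from transgenic T. cruzi replicating inside host cells; inhibitors lower the luminescence signal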
[6] = target: T2, Polyadenylate-binding protein 1 (Homo sapiens, UniProt P11940); assay: PABP1 MLLE–PAM2 interaction inhibitors, dose response, miRNA deadenylation inhibitor project, biochemical, fluorescence polarization, Cy5-PAM2 peptide, secondary (AID 602260); assay type: functional; details: read-out: IC50_Mean
T2 sequence (P11940 whole entry): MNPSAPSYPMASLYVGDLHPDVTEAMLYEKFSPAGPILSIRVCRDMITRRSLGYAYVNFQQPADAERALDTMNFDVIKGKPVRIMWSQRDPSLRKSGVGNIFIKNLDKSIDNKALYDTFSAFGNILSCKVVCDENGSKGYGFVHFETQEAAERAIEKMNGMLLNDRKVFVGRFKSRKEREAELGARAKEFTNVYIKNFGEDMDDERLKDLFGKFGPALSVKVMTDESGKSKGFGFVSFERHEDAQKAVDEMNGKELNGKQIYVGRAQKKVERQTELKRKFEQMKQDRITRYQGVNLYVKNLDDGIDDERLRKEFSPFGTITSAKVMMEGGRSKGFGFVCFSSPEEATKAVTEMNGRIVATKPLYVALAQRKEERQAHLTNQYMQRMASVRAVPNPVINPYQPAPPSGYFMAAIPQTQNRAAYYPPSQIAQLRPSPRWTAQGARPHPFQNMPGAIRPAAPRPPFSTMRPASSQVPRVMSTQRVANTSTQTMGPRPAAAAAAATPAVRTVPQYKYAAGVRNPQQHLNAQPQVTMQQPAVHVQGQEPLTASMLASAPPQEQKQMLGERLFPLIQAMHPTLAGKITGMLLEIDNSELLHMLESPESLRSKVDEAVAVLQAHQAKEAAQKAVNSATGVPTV

[7] = target: T2, Polyadenylate-binding protein 1; assay: PABP1 MLLE–PAM2 binding inhibitor potency, dose response, biochemical, fluorescence polarization, FITC-PAM2 peptide (AID 602259); assay type: functional; details: read-out: IC50_Mean
[8] = target: T3, Low molecular weight phosphotyrosine protein phosphatase (Homo sapiens, UniProt P24666); assay type: functional; details: read-out: IC50_Mean;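 also: Dose-response confirmation assay measuring inhibition of LMPTP enzyme activity by fluorescence intensity read-out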
T3 sequence (P24666 whole entry): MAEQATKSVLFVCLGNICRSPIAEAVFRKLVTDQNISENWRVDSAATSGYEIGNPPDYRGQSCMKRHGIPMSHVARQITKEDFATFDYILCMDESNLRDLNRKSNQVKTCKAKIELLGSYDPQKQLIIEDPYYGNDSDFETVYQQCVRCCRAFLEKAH

[9] = Luminescence Cell-Based Dose Response HTS to Identify Activators of Luciferase Translation or Activity in H4 […] Cells. [Related pubchem assays: 1829 (Project Summary), 1814 (Primary HTS)]; assay type: functional
[10] = Luminescence Cell-Based Dose Confirmation HTS to Identify Activators of 5'UTR Stem-Loop Driven Alpha-Synuclein mRNA Translation in H4 Neuroglioblastoma Cells. [Related pubchem assays: 1829 (Project Summary), 1814 (Primary HTS)]; assay type: functional
Cytochrome P450 2C9 = Cytochrome P450 2C9 (Homo sapiens, UniProt P11712)
Cytochrome P450 2C9, sequence (P11712 whole entry): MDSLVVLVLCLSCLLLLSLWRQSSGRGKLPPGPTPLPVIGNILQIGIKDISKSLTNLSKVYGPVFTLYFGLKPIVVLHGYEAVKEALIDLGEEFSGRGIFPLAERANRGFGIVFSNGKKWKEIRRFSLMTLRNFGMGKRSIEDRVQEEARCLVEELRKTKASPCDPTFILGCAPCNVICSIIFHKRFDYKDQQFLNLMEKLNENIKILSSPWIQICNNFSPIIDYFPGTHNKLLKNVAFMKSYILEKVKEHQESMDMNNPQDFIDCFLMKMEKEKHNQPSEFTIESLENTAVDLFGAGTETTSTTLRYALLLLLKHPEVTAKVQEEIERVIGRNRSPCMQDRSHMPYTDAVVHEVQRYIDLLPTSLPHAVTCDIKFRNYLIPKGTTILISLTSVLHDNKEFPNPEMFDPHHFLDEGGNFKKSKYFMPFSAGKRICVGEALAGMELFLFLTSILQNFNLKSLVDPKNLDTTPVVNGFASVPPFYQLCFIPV

Paired box protein Pax-8 = Paired box protein Pax-8 (Homo sapiens, UniProt Q06710); assay: inhibitors of PAX8-driven TPO luciferase reporter, dose response, RMG-I cells, cherry-pick (AID 687027); assay type: functional, cell-based;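 also: luciferase reporter driven by Pax8 target thyroperoxidase promoter measured by SteadyGlo luminescence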
Paired box protein Pax-8, sequence (Q06710 whole entry): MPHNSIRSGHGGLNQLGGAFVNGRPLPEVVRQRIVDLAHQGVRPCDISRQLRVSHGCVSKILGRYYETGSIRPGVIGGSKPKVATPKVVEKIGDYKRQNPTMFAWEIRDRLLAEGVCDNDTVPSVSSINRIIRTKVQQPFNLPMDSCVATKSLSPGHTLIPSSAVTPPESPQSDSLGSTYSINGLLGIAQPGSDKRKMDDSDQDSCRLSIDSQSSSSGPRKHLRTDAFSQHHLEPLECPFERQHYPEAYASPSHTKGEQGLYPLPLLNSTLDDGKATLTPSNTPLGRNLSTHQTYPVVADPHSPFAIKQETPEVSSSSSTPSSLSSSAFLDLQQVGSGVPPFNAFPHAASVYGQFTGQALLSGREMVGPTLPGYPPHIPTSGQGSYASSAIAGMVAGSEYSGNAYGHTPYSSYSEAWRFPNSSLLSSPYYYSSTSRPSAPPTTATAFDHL

[11] = target: T4, Short transient receptor potential channel 4 (Mus musculus, UniProt Q9QUQ5); assay: mouse TRPC4 channel activators, dose response, cell-based, HEK293 TRPC4/mu-opioid, Fluo-4 calcium (AID 434937); assay type: functional
T4 sequence (Q9QUQ5 whole entry): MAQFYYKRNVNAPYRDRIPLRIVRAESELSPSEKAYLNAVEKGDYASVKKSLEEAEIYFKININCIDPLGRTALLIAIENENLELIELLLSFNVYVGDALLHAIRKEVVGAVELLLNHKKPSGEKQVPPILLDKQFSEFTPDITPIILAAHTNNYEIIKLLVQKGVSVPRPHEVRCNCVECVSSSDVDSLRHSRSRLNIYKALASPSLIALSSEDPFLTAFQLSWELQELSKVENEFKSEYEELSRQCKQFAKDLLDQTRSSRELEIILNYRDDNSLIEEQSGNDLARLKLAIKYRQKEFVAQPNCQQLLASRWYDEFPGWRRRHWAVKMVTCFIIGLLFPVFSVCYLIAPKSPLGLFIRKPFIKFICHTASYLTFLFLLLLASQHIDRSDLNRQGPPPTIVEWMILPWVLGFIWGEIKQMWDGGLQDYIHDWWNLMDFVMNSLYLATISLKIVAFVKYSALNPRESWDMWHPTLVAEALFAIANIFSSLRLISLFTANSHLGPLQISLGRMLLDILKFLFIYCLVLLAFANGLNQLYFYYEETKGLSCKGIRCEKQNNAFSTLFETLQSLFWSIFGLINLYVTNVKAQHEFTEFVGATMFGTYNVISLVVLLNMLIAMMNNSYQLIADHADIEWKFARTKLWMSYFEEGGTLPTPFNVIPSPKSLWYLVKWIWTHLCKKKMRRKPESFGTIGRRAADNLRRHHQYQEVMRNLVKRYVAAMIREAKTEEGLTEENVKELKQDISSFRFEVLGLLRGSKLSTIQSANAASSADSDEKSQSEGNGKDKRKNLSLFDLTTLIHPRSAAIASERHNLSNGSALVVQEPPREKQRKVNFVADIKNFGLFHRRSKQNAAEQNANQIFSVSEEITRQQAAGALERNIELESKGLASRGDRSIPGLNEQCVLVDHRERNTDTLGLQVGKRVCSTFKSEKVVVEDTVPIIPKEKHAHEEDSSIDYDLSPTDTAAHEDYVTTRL

CCCCCCCCCCCC1CCCC(C)N1 (stereo not drawn)
GI50 (P388): 10.5 µM (inactive)
GI50 (P388/ADR): 12.4 µM (inactive)
GI50 (SN12K1): 28.3 µM (inactive)

CC(C)c1ccc(-c2cc(C(=O)N3N=C(C(F)F)CC3(O)C(F)F)c3ccccc3n2)cc1 (stereo not drawn)
AC50 [1]: 4.37 µM (active)
EC50 [2]: > 60 µM (not active)
EC50 [3]: 3.3 µM (active)
EC50 (H4): 10 µM (active)
EC50 (Streptokinase A): > 150 µM (not active)
AC50 [4]: 4.06 µM (active)
EC50 (Streptococcus): 4.31 µM (active)
EC50 [5]: 3.4 µM (active)

O=C1CCCN1CCC1CCN(C2CC(=O)N(c3ccc(Cl)cc3)C2=O)CC1 (stereo not drawn)
AC50 [4]: 7.56 µM (active)

Cc1cc2cc(CNC(=O)c3ccc(C)c([N+](=O)[O-])c3)ccc2[nH]1
IC50 [6]: > 66 µM (inactive)
AC50 [4]: 11 µM (active)
IC50 [7]: > 66 µM (inactive)

C[C@@]12CC[C@H]3[C@@H]4CCC(=O)N[C@@]4(C)CC[C@@H]3[C@@]1(C)CC[C@H](OC(=O)Cc1ccc(N(CCCl)CCCl)cc1)C2
GI50 (P388): 10.6 µM (inactive)
GI50 (P388/ADR): 14.7 µM (inactive)
GI50 (SN12K1): 16.9 µM (inactive)

O=c1n(CC2CO2)c(=O)n(CC2CO2)c(=O)n1CC1CO1 (stereo not drawn) [TEROXIRONE]
GI50 (P388): 1.61 µM (inactive)
GI50 (P388/ADR): 1.91 µM (inactive)
GI50 (SN12K1): 35.6 µM (inactive)

CCn1cc(C(=O)O)c(=O)c2cnc(N3CCN(C(=S)Nc4ccccc4Cl)CC3)nc21
IC50 [8]: 35.9 µM (inactive)
EC50 (H4): > 120 µM (not active)
EC50 [9]: > 120 µM (not active)
EC50 [10]: > 120 µM (not active)

Nc1nc(N)c2nc(CNc3ccc(C(=O)N[C@H](CCC(=O)O)C(=O)O)cc3)cnc2n1
AC50 (Cytochrome P450 2C9): inconclusive

C=Cc1cc(OC)c2c(c1)c(=O)oc1c2cc(OC)c2c(O)ccc(C3OC(C)C(O)C(C)(O)C3O)c21 (stereo not drawn)
GI50 (P388): 0.0225 µM (active)
GI50 (P388/ADR): 0.0225 µM (active)
GI50 (SN12K1): 0.0269 µM (active)
AC50 (Paired box protein Pax-8): < 0.26 µM (active)

CS(=O)(=O)c1ccc(Cn2c3c(c4cc(F)cc(F)c42)CCC[C@H]3CC(=O)O)cc1
AC50 (Cytochrome P450 2C9): inconclusive

CCOC(=O)C1(CCc2ccccc2)CCN(Cc2csc(C(C)=O)c2)CC1
EC50 [11]: 0.841 µM (active)

Cn1c(N2CCN(C(=O)Nc3ccc(F)cc3)CC2)nc2ccccc21
EC50 [11]: 6.68 µM (active)
